{"source": "the supplement of paper PMC9103864", "key": {"[1]": {"test_system": "BMSC (primary human bone marrow mesenchymal stromal cells)", "assay": "drug sensitivity score (DSS); higher = more sensitive"}, "[2]": {"test_system": "BMSC (primary human bone marrow mesenchymal stromal cells)", "assay": "absolute EC50 for viability; higher = less sensitive"}}, "data": [{"compound": "CC(C)n1nc(-c2ccc3oc(N)nc3c2)c2c(N)ncnc21", "note": "[Sapanisertib]", "values": [{"measurement": "drug sensitivity score", "setting": "[1]", "result": 11.4}, {"measurement": "absolute EC50 for viability", "setting": "[2]", "result": 0.0759, "unit": "µM"}]}, {"compound": "Cc1sc2c(c1C)C(c1ccc(Cl)cc1)=N[C@@H](CC(=O)NCCCCNC(=O)COc1cccc3c1C(=O)N(C1CCC(=O)NC1=O)C3=O)c1nnc(C)n1-2", "note": "(stereo not given in full) [dBET1]", "values": [{"measurement": "drug sensitivity score", "setting": "[1]", "result": 8.2}, {"measurement": "absolute EC50 for viability", "setting": "[2]", "result": 2.05, "unit": "µM"}]}, {"compound": "C=CC(=O)N1CC/C(=C\\c2ccc(F)c([N+](=O)[O-])c2)C(=O)/C(=C/c2ccc(F)c([N+](=O)[O-])c2)C1", "note": "[VLX1570]", "values": [{"measurement": "drug sensitivity score", "setting": "[1]", "result": 9.6}, {"measurement": "absolute EC50 for viability", "setting": "[2]", "result": 1.4, "unit": "µM"}]}, {"compound": "Nc1nc2[nH]cnc2c(=S)[nH]1", "note": "[Thioguanine]", "values": [{"measurement": "drug sensitivity score", "setting": "[1]", "result": 9.2}, {"measurement": "absolute EC50 for viability", "setting": "[2]", "result": 1.18, "unit": "µM"}]}, {"compound": "Cc1ccc(NC(=O)c2ccc(CN3CCN(C)CC3)cc2)cc1Nc1nccc(-c2cccnc2)n1", "note": "[Imatinib]", "values": [{"measurement": "drug sensitivity score", "setting": "[1]", "result": 5.8}, {"measurement": "absolute EC50 for viability", "setting": "[2]", "result": "> 10", "unit": "µM"}]}, {"compound": "COc1cc2c(NC3CCN(C(C)C)CC3)nc(N3CCC(F)(F)CC3)nc2cc1OCCCN1CCCC1", "note": "[UNC0642]", "values": [{"measurement": "drug sensitivity score", "setting": "[1]", "result": 5.2}, {"measurement": "absolute EC50 for viability", "setting": "[2]", "result": 3.38, "unit": "µM"}]}, {"compound": "O=C(O)c1ccc(CN2CCC(CN[C@@H]3C[C@H]3c3ccccc3)CC2)cc1", "values": [{"measurement": "drug sensitivity score", "setting": "[1]", "result": 0}, {"measurement": "absolute EC50 for viability", "setting": "[2]", "result": "> 100", "unit": "µM"}]}, {"compound": "CC1=C2C[C@H]3[C@@H](CC[C@@H]4C[C@H](NS(C)(=O)=O)CC[C@@]43C)[C@@H]2CC[C@@]2(C1)O[C@@H]1C[C@H](C)CN[C@H]1[C@H]2C", "note": "[Saridegib]", "values": [{"measurement": "drug sensitivity score", "setting": "[1]", "result": 0}, {"measurement": "absolute EC50 for viability", "setting": "[2]", "result": "> 10", "unit": "µM"}]}, {"compound": "Cc1ccc(C(=O)Nc2ccc(Oc3cc4cnn(C)c4cc3-c3cn[nH]c3)c(F)c2)c(=O)n1-c1ccc(F)cc1", "note": "[Merestinib]", "values": [{"measurement": "drug sensitivity score", "setting": "[1]", "result": 1.4}, {"measurement": "absolute EC50 for viability", "setting": "[2]", "result": "> 1", "unit": "µM"}]}, {"compound": "CCc1c2c(nc3ccc(O)cc13)-c1cc3c(c(=O)n1C2)COC(=O)[C@]3(O)CC", "note": "[SN-38]", "values": [{"measurement": "drug sensitivity score", "setting": "[1]", "result": 10}, {"measurement": "absolute EC50 for viability", "setting": "[2]", "result": 1.52, "unit": "µM"}]}, {"compound": "NC(=O)/C(=C/n1cnc(-c2cc(C(F)(F)F)cc(C(F)(F)F)c2)n1)c1cncnc1", "note": "[Eltanexor]", "values": [{"measurement": "drug sensitivity score", "setting": "[1]", "result": 9.6}, {"measurement": "absolute EC50 for viability", "setting": "[2]", "result": "> 10", "unit": "µM"}]}, {"compound": "O=C(c1ccc(OCCN2CCCCC2)cc1)c1c(-c2ccc(O)cc2)sc2cc(O)ccc12", "note": "[Raloxifene]", "values": [{"measurement": "drug sensitivity score", "setting": "[1]", "result": 2.6}, {"measurement": "absolute EC50 for viability", "setting": "[2]", "result": 7.96, "unit": "µM"}]}, {"compound": "O=C(NC[C@H](O)CN1CCc2ccccc2C1)c1cc(NC2COC2)ncn1", "values": [{"measurement": "drug sensitivity score", "setting": "[1]", "result": 0}, {"measurement": "absolute EC50 for viability", "setting": "[2]", "result": "> 10", "unit": "µM"}]}, {"compound": "Cc1cnc(Nc2ccc(OCCN3CCCC3)cc2)nc1Nc1cccc(S(=O)(=O)NC(C)(C)C)c1", "note": "[Fedratinib]", "values": [{"measurement": "drug sensitivity score", "setting": "[1]", "result": 9.3}, {"measurement": "absolute EC50 for viability", "setting": "[2]", "result": 1.47, "unit": "µM"}]}, {"compound": "COc1ccc(COc2cc3oc(=O)c4cc(C(C)O)ccc4c3cc2OC)cc1", "note": "(stereo not given) [Palomid-529]", "values": [{"measurement": "drug sensitivity score", "setting": "[1]", "result": 0}, {"measurement": "absolute EC50 for viability", "setting": "[2]", "result": "> 10", "unit": "µM"}]}, {"compound": "CN1CCN(c2ccc(C(=O)Nc3n[nH]c4ccc(Cc5cc(F)cc(F)c5)cc34)c(NC3CCOCC3)c2)CC1", "note": "[Entrectinib]", "values": [{"measurement": "drug sensitivity score", "setting": "[1]", "result": 0.8}, {"measurement": "absolute EC50 for viability", "setting": "[2]", "result": "> 1", "unit": "µM"}]}, {"compound": "Cc1cn(-c2cc(NC(=O)c3ccc(C)c(Nc4nccc(-c5cccnc5)n4)c3)cc(C(F)(F)F)c2)cn1", "note": "[Nilotinib]", "values": [{"measurement": "drug sensitivity score", "setting": "[1]", "result": 0}, {"measurement": "absolute EC50 for viability", "setting": "[2]", "result": "> 10", "unit": "µM"}]}, {"compound": "CNC(=O)c1ccccc1Nc1cc(Nc2ccc(N3CCOCC3)cc2OC)ncc1C(F)(F)F", "note": "[VS-4718]", "values": [{"measurement": "drug sensitivity score", "setting": "[1]", "result": 5.6}, {"measurement": "absolute EC50 for viability", "setting": "[2]", "result": "> 10", "unit": "µM"}]}, {"compound": "C=C(c1ccc(C(=O)O)cc1)c1cc2c(cc1C)C(C)(C)CCC2(C)C", "note": "[Bexarotene]", "values": [{"measurement": "drug sensitivity score", "setting": "[1]", "result": 0}, {"measurement": "absolute EC50 for viability", "setting": "[2]", "result": "> 10", "unit": "µM"}]}, {"compound": "CC[C@H](CO)Nc1nc(NCc2ccccc2)c2ncn(C(C)C)c2n1", "note": "[Seliciclib]", "values": [{"measurement": "drug sensitivity score", "setting": "[1]", "result": 0}, {"measurement": "absolute EC50 for viability", "setting": "[2]", "result": "> 10", "unit": "µM"}]}]}
